Reference: publication PMC2606621 (Journal of neurochemistry, 2008)
Like-named read-outs stand apart in the source and are kept apart here. One block for each molecule: values may come before it.

What was measured:
CB1 receptor = settings: ref Hill et al., cited from earlier work
[1] = molecular target: T1, fatty acid amide hydrolase (FAAH) (Rattus norvegicus, UniProt P97612); test: Fatty acid amide hydrolase activity assay; type: in vivo; settings: for effect on Vmax of FAAH: combination of CUS and imipramine, p < 0.05; for Km: read-out: binding affinity (Km) of fatty acid amide hydrolase for anandamide
T1 sequence (P97612 1-579): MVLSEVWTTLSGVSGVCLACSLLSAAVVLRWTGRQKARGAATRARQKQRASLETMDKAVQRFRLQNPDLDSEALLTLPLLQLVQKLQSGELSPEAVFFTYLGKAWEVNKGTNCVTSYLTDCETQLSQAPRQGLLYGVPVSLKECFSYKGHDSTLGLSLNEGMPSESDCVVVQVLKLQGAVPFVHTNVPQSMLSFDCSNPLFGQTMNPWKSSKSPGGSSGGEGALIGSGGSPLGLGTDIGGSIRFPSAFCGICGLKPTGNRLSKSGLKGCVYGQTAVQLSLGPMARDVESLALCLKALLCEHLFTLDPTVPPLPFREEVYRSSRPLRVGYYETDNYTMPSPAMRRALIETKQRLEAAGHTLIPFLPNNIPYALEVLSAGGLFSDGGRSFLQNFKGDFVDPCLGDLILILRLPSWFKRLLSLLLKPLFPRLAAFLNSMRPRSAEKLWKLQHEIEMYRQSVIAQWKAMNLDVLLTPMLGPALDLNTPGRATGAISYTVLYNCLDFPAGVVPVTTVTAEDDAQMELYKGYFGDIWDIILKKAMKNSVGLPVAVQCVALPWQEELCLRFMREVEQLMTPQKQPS

[2] = test system: endocannabinoids AEA and 2-AG; test: Plasma endocannabinoid content; type: in vivo, rat; settings: imipramine 10 mg/kg, 21 days; p > 0.05
[3] = test system: endocannabinoids AEA and 2-AG; test: Brain tissue endocannabinoid content; settings: imipramine alone; any brain region examined
cannabinoid CB1 receptor = cannabinoid CB1 receptor (Rattus norvegicus, UniProt P20272); test: CB1 receptor binding assay; type: in vivo; settings: for effect on Bmax of the CB1 receptor: imipramine alone
Sequence of cannabinoid CB1 receptor (P20272 whole entry): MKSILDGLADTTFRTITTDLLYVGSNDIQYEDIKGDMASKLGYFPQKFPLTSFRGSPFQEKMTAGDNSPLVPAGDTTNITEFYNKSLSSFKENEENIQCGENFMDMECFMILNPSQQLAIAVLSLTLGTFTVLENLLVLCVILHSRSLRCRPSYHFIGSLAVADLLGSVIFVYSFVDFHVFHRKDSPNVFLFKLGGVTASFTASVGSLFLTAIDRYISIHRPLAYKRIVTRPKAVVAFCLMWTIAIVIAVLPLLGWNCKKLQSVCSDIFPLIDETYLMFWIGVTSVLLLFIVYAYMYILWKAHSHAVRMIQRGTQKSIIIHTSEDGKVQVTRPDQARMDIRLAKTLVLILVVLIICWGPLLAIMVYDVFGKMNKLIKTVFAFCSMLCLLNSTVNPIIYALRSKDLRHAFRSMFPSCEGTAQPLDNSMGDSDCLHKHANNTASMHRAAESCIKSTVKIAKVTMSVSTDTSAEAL

Compound: C[C@]12C[C@H](O)[C@H]3[C@@H](CCC4=CC(=O)CC[C@@]43C)[C@@H]1CC[C@@H]2C(=O)CO [corticosterone]
- effect on CB1 receptor binding and protein expression (CB1 receptor; hippocampus, 21 days administration, absence of stress, 2008a): comparable reduction

Compound: CNCCCN1c2ccccc2CCc2ccccc21 [desipramine]
- effect on CB1 receptor binding (CB1 receptor; hippocampus of unstressed rats, 2006): up-regulation
- effect on CB1 receptor agonist binding site density (CB1 receptor; hypothalamus, unstressed rats, chronic treatment, 2006): increases

- effect on maximal hydrolytic activity (Vmax) of FAAH ([1]; imipramine alone, any brain region examined): no effects
- effect on Vmax of FAAH ([1]; midbrain): increased
- Km ([1]; Amygdala, CON/IMI (no stress, imipramine 10 mg/kg, 21 days)): 0.95 nM
- Km ([1]; Amygdala, CUS/IMI (21 days CUS + imipramine 10 mg/kg)): 0.53 nM
- Km ([1]; Hippocampus, CON/IMI (no stress, imipramine 10 mg/kg, 21 days)): 0.8 nM
- Km ([1]; Hippocampus, CUS/IMI (21 days CUS + imipramine 10 mg/kg)): 0.71 nM
- Km ([1]; Hypothalamus, CON/IMI (no stress, imipramine 10 mg/kg, 21 days)): 0.44 nM
- Km ([1]; Hypothalamus, CUS/IMI (21 days CUS + imipramine 10 mg/kg)): 0.55 nM
- Km ([1]; Midbrain, CON/IMI (no stress, imipramine 10 mg/kg, 21 days)): 0.6 nM
- Km ([1]; Midbrain, CUS/IMI (21 days CUS + imipramine 10 mg/kg)): 0.61 nM
- Km ([1]; Prefrontal Cortex, CON/IMI (no stress, imipramine 10 mg/kg, 21 days)): 0.65 nM
- Km ([1]; Prefrontal Cortex, CUS/IMI (21 days CUS + imipramine 10 mg/kg)): 0.46 nM
- Km ([1]; Ventral Striatum, CON/IMI (no stress, imipramine 10 mg/kg, 21 days)): 0.37 nM
- Km ([1]; Ventral Striatum, CUS/IMI (21 days CUS + imipramine 10 mg/kg)): 0.69 nM
- effect on Vmax of FAAH ([1]; ventral striatum): increased
- effect on Bmax of the CB1 receptor (increase) (cannabinoid CB1 receptor; amygdala, CUS and imipramine combined, p > 0.05): did not occur
- effect on Bmax of the CB1 receptor (cannabinoid CB1 receptor; amygdala, p < 0.05): increase
- effect on CB1 receptor agonist binding site density (Bmax) (cannabinoid CB1 receptor; hippocampus, imipramine 10 mg/kg, 21 days (ANOVA main effect)): unaffected
- effect on Bmax for [3H]CP55940 binding to the CB1 receptor (cannabinoid CB1 receptor; hypothalamus, CUS and imipramine together vs control, p > 0.05): no significant difference
- effect on CB1 receptor binding site density (Bmax) (cannabinoid CB1 receptor; midbrain, imipramine 10 mg/kg, 21 days, p < 0.05): significant reduction
- effect on agonist binding site density (Bmax) of the CB1 receptor (cannabinoid CB1 receptor; prefrontal cortex, imipramine 10 mg/kg, 21 days (ANOVA main effect)): no effect
- effect on Bmax of the CB1 receptor (reduction) (cannabinoid CB1 receptor; ventral striatum, CUS and imipramine concurrently, p > 0.05): not seen
- effect on Bmax of the CB1 receptor (cannabinoid CB1 receptor; ventral striatum, p < 0.01): significant reductions
Compound: CN(C)CCCN1c2ccccc2CCc2ccccc21 [imipramine]
- effect on plasma 2-AG content [2]: unaffected
- effect on plasma AEA content [2]: neither an effect
- effect on tissue AEA content [3]: no effect
